# Measurements reported in US10471080B2, “Use of trehalose for prevention of neural tube defects” (UNIVERSITY OF MARYLAND, BALTIMORE, priority 2012, dated 2019).
# How the values were obtained:
# [1] = system: maternal diabetes-induced NTDs; assay: In vivo mouse model of diabetic embryopathy, morphologic assessment of NTDs at E11.5
# Description: In vivo mouse model of diabetic embryopathy and morphologic assessment of NTDs. The mouse model of diabetic embryopathy was previously described (21, 22). Briefly, female mice were intravenously (i.v.) injected daily with 75 mg/kg streptozotocin (STZ) over two days to induce diabetes. Nondiabetic WT with vehicle injection served as controls. Diabetes was defined as 12-hour fasting blood glucose levels ≥250 mg/dl, which normally occurred at 3-5 days after STZ injections. There is no residual toxic effect caused by STZ in this animal model. Embryos were gathered at E8.75 (2:00 PM at E8.5) for analysis and at E11.5 from NTD examination.
# (§1) Trehalose treatment and trehalose measurement. Concentrations of either 2% or 5% (gram/volume [ml]) trehalose (Cat#: T9531, Sigma) were given to WT nondiabetic and diabetic pregnant mice at E5.5 in drinking water. Trehalose levels in maternal serum and embryos were determined by the Trehalose Kit from Megazyme (Wicklow, Ireland).
# Statistical analyses. Statistical differences were determined by Student's t-test for two group comparisons and One way ANOVA for more than two groups comparisons using SigmaStat 3.5 software. In ANOVA analysis, Tukey-test was used to estimate the significance of the results. Significant difference between groups in NTD incidence was analyzed by Chi-square test.
# [2] = Trehalose measurement in maternal serum and embryos (Trehalose Kit, Megazyme); assay type: in vivo, mouse; settings: diabetic dams
# Description: as §1
# LC3-II [3] = assay: LC3-II levels in E8.75 embryos; assay type: in vivo, mouse; settings: E8.75 embryos of diabetic dams
# [4] = system: embryonic neuroepithelial cells; assay: GFP-LC3 puncta analysis in GFP-LC3 transgenic mice; assay type: in vivo, mouse
# Description: GFP-LC3 puncta analysis. GFP-LC3 transgenic (Tg) mice were used to quantify autophagy in vivo. E8.75 embryos were gathered, fixed in 4% paraformaldehyde (PFA) in PBS for 30 min at 4° C., quickly frozen, and cryosectioned at […] GFP florescent images in embryonic neuroepithelial cells were recorded by confocal microscopy using a laser scanning microscope (LSM 510 META, ZEISS). GFP-LC3 punctate foci with a diameter greater than or equal to 20 pixels in each cell were calculated by Image J software according to the manufacturer's manual.
# neuroepithelial cells = assay: Electron microscopy of autophagosomes and mitochondria in E8.75 neuroepithelia; assay type: in vivo, mouse
# Text: Electron microscopy. The structures of autophagosome and mitochondria were examined by transmission electron microscopy (EM) in the University of Maryland EM core facility. Thick sections (1 μm) were cut and visualized at ×100 magnifications to identify the neuroepithelia of E8.75 embryos. Thin sections (80 nm) of identified neuroepithelia were cut and viewed with an electron microscope (Joel JEM-1200EX; Tokyo, Japan) under high-power resolution (10, 12 and 25 K) for identification of cellular organelle structures.
# [5] = system: ULK1, Beclin 1, Atg3, Atg5, Ambra1, p62, Dap; assay: Autophagy-related gene expression in E8.75 embryos; assay type: in vivo, mouse; settings: diabetic group
# [6] = system: ER stress and JNK1/2 activation; assay: ER stress markers and JNK1/2 activation in E8.75 embryos; assay type: in vivo, mouse; settings: diabetic group with 5% trehalose
# [7] = system: neuroepithelial cell apoptosis; assay: Pro-apoptotic Bcl-2 members, caspase cleavage and TUNEL assay in E8.75 embryos; assay type: in vivo, mouse; settings: diabetic group with 5% trehalose
# Description: TUNEL assay. TUNEL assay was performed as previously described (21, 22). Briefly, 5-μm serial coronal sections through the forebrain-midbrain (FB-MB) boundary of the anterior neural tube were fixed with 4% PFA in PBS and incubated with TUNEL reaction agents. Closure at the FB-MB boundary is an essential step for closure of the anterior neural tube, and failed closure in this area results in exencephaly (2, 8). TUNEL-positive cells were counted in the neural tube area of each section. Based on the counting of total cell nuclei, the sizes of the neural tube areas of each section were relatively constant. Thus, apoptotic cell numbers were expressed as total TUNEL-positive cells per neural tube area. TUNEL assays were performed without the observer knowing the experimental group of the embryo examined.
# [8] = system: 4-HNE, MDA, nitrotyrosine or ubiquitin-modified proteins; assay: Levels of oxidized and ubiquitin-modified (dysfunctional) proteins in E8.75 embryos; assay type: in vivo, mouse; settings: diabetic group with 5% trehalose
# [9] = system: neurogenesis in the developing neural tube; assay: Immunofluorescent staining of TuJ1 and Sox1 in developing neural tubes (neurogenesis); assay type: in vivo, mouse; settings: neural tubes exposed to diabetes
# Description: Immunofluorescent staining. […] Deparaffinized sections were incubated with TuJ 1 antibody (Covance, #MMS-435P) at 1:400 dilution or Sox1 antibody (Cell Signaling, #4194) at 1:100 dilution in PBS with 10% heat-inactivated donkey serum overnight at 4° C. After washes in PBS, sections were incubated with secondary antibodies, Alexa Fluor® 488 Donkey Anti-Mouse IgG to TuJ1, and Alexa Fluor® 594 Donkey Anti-Rabbit IgG to Sox1. Cell nuclei were stained with DAPI (Blue). Immunofluorescent staining was examined by immunofluorescence microscopy. In order to visualize neurogenesis throughout the anterior neural tube, serial sections through the entire anterior neural tube were analyzed and representative images were shown. The earliest neurogenesis site was found at the boundary of midbrain and hindbrain. Five embryos from five dams per group were analyzed.
# autophagy = settings: in vitro; cited from earlier work
# NTDs = settings: cited from earlier work
# LC3-II [10] = assay: LC3-II levels in cultured E8 embryos under high glucose with or without Chloroquine; settings: high glucose 250 mg/dl, 25 μmol/L Chloroquine
structure (smiles),measurement,setting,value
OC[C@H]1O[C@H](O[C@H]2O[C@H](CO)[C@@H](O)[C@H](O)[C@H]2O)[C@H](O)[C@@H](O)[C@@H]1O [trehalose],maternal diabetes-induced NTDs,"[1]; 2% trehalose, diabetic dams, lesser extent than 5%",significantly reduced maternal diabetes-induced NTDs
same,NTD rate,"[1]; Diabetic + 2% trehalose in drinking water from E5.5, E11.5, total NTD embryos/total embryos",9.8%
same,Resorption Rates,"[1]; Diabetic + 2% trehalose, E11.5",4.7
same,Total NTD Embryos,"[1]; Diabetic + 2% trehalose, E11.5, of 41 total embryos",4
same,NTD rate,"[1]; Nondiabetic + 2% trehalose in drinking water from E5.5, E11.5, total NTD embryos/total embryos",0%
same,Resorption Rates,"[1]; Nondiabetic + 2% trehalose, E11.5",4.8
same,Total NTD Embryos,"[1]; Nondiabetic + 2% trehalose, E11.5, of 29 total embryos",0
same,NTD rate,"[1]; embryos from diabetic dams treated with 5% trehalose water (weight/volume), calculated by litters",4.0±2.2%
same,NTD rate,[1]; embryos from nondiabetic dams with or without trehalose treatment,0.0±0.0%
same,Resorption Rates,[1]; nondiabetic and diabetic dams with or without trehalose treatments,did not differ
same,embryonic trehalose levels,[2]; 2% group,15.8±1.0 μg/g tissue
same,trehalose in maternal blood,[2]; 2% trehalose in drinking water,162.0 ± 16.9 µg/mL
same,embryonic trehalose levels,[2]; 5% group,53.9±3.7 μg/g tissue
same,trehalose in maternal blood,[2]; 5% trehalose in drinking water,503.9 ± 19.3 µg/mL
same,LC3-II expression,LC3-II [3],restored maternal diabetes-diminished LC3-II expression
same,number of autophagic GFP-LC3 puncta in neuroepithelial cells,"[4]; diabetic group treated with trehalose, E8.75",restored to the level of that observed in the nondiabetic groups
same,basal autophagy activities in neuroepithelial cells,[4]; nondiabetic group,did not affect basal autophagy activities
same,number of defective mitochondria,"neuroepithelial cells; diabetic conditions, E8.75 neuroepithelia",significantly reduced the number of defective mitochondria to a level comparable to that in the nondiabetic control group
same,autophagosome formation in neuroepithelial cells,"neuroepithelial cells; diabetic group, E8.75",blocked maternal diabetes-repressed autophagosome formation
same,"expression of ULK1, Beclin 1, Atg3, Atg5, and Ambra1",[5],blocked the downregulation
same,expression of p62 and Dap,[5],blocked
same,JNK1/2 activation and downstream effector c-Jun,[6],completely abolished maternal diabetes-induced JNK1/2 activation
same,XBP1 mRNA splicing,[6],diminished XBP1 mRNA splicing
same,"expression or phosphorylation of ER chaperone proteins BiP, CHOP, eIF2α",[6],abrogated maternal diabetes-increased expression or phosphorylation
same,expression of 7 ER chaperone genes,[6]; mRNA,abolished
same,BID cleavage,[7],prevented
same,caspase 3 and 8 cleavage,[7],abolished maternal diabetes-induced caspase 3 and 8 cleavage
same,level of phosphorylated Bad,[7],restored
same,neuroepithelial cell apoptosis (TUNEL),[7],blocked neuroepithelial cell apoptosis
same,"levels of 4-HNE, MDA, nitrotyrosine or ubiquitin-modified proteins",[8],blocked maternal diabetes-increased levels of all of these modified proteins
same,differentiation of Sox1 positive neural progenitors,[9],corrected maternal diabetes-blocked differentiation of Sox1 positive neural progenitors
same,neurogenesis (TuJ1 expressing neurons),[9]; E9.0 to E10.5,reversed delayed neurogenesis
same,autophagy stimulating activities,autophagy,possess autophagy stimulating activities in vitro
O[C@H]1[C@H](O)[C@@H](O)[C@H](O)[C@@H](O)[C@H]1O [inositol],folate-resistant NTDs,NTDs,can prevent some of the folate-resistant NTDs
CCN(CC)CCCC(C)Nc1ccnc2cc(Cl)ccc12 (centres unmarked) [Chloroquine],high glucose-induced LC3-II reduction,LC3-II [10],did not block high glucose-induced LC3-II reduction
